Source: patent US12291519B2, “2-hydroxycycloalkane-1-carbamoyl” (Idorsia Pharmaceuticals Ltd, priority 2019, dated 2025)
pIC50: −log10 of the molar value.

Legend:
human Gal-3 (hGal-3) = human Gal-3 (hGal-3) (Homo sapiens (Human), UniProt P17931); assay: Competitive binding assay: biotinylated hGal-3 binding to microplate-adsorbed asialofetuin (ASF); conditions: Activity on hGal-3; binding of biotinylated hGal-3 to ASF-coated plates; mean values
How it was run: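 Serially diluted compounds competed with biotinylated human Gal-3 for binding to plate-adsorbed asialofetuin over 3 h at 4 °C. Bound Gal-3 was detected with streptavidin-peroxidase (80 ng/mL, 1 h, 4 °C) and ABTS substrate. IC50 values are means of several measurements.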

human Gal-1 (hGal-1) = assay: Competitive binding assay: biotinylated hGal-1 binding to microplate-adsorbed asialofetuin (ASF); conditions: Activity on hGal-1; binding of biotinylated hGal-1 to ASF-coated plates; mean values
How it was run: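 Biotinylated hGal-1 (300–1000 ng/mL; optionally a cysteine-free all-serine variant) incubated 3 h at 4 °C with compound on asialofetuin-coated plates, then streptavidin-peroxidase 1 h at 4 °C. ABTS readout at OD 410 nm after 30–45 min; IC50 given as mean of several runs.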

human Gal-1 (hGal-1), sequence (P09382 2-135 limits assumed): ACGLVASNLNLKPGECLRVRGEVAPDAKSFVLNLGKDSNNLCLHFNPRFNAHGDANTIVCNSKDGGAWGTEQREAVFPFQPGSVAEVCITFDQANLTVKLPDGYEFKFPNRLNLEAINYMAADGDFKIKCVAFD
human Gal-3 (hGal-3), sequence (P17931 whole entry): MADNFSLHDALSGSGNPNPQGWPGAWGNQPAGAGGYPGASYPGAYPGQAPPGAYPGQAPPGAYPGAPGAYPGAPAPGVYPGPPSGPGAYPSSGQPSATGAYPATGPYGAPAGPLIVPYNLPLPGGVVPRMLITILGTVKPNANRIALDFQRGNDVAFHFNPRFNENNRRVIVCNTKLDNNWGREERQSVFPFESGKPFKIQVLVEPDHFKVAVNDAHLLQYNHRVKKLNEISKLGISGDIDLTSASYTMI

| SMILES | pIC50 (human Gal-3 (hGal-3)) | pIC50 (human Gal-1 (hGal-1)) |
| --- | --- | --- |
| CO[C@@H]1[C@@H](n2cc(-c3cc(F)c(Br)c(F)c3)nn2)[C@@H](O)[C@@H](CO)O[C@H]1C(=O)N(c1cc(Cl)cc(Cl)c1)[C@H]1CCCC[C@@H]1O [Example 151, (2R,3R,4S,5R,6R)-4-(4-(4-bromo-3,5-difluorophenyl)-1H-1,2,3-triazol-1-yl)-N-(3,5-dichlorophenyl)-5-hydroxy-N-((1S,2S)-2-hydroxycyclohexyl)-6-(hydroxymethyl)-3-methoxytetrahydro-2H-pyran-2-carboxamide] | 7.43 | 5.95 |
| CO[C@@H]1[C@@H](n2cc(-c3cc(F)cc(F)c3)nn2)[C@@H](O)[C@@H](CO)O[C@H]1C(=O)N(c1cc(Cl)cc(C#N)c1)[C@H]1CCCC[C@@H]1O [Example 80, (2R,3R,4S,5R,6R)-N-(3-chloro-5-cyanophenyl)-4-(4-(3,5-difluorophenyl)-1H-1,2,3-triazol-1-yl)-5-hydroxy-N-((1S,2S)-2-hydroxycyclohexyl)-6-(hydroxymethyl)-3-methoxytetrahydro-2H-pyran-2-carboxamide] | 7.60 | 6.42 |
| CO[C@@H]1[C@@H](n2cc(-c3ccc(Cl)c(OC(F)(F)F)c3)nn2)[C@@H](O)[C@@H](CO)O[C@H]1C(=O)N(c1cc(Cl)cc(C#N)c1)[C@H]1CCCC[C@@H]1O [Example 185, (2R,3R,4S,5R,6R)-4-(4-(4-chloro-3-(trifluoromethoxy)phenyl)-1H-1,2,3-triazol-1-yl)-N-(3-chloro-5-cyanophenyl)-5-hydroxy-N-((1S,2S)-2-hydroxycyclohexyl)-6-(hydroxymethyl)-3-methoxytetrahydro-2H-pyran-2-carboxamide] | 6.63 | 5.86 |
| CO[C@@H]1[C@@H](n2cc(-c3cc(F)c(C)c(F)c3)nn2)[C@@H](O)[C@@H](CO)O[C@H]1C(=O)N(c1cc(F)cc(C#N)c1)[C@H]1CCCC[C@@H]1O [Example 161, (2R,3R,4S,5R,6R)-N-(3-cyano-5-fluorophenyl)-4-(4-(3,5-difluoro-4-methylphenyl)-1H-1,2,3-triazol-1-yl)-5-hydroxy-N-((1S,2S)-2-hydroxycyclohexyl)-6-(hydroxymethyl)-3-methoxytetrahydro-2H-pyran-2-carboxamide] | 7.60 | 5.66 |
| O=C(CO[C@@H]1[C@@H](n2cc(-c3cc(F)c(F)c(F)c3)nn2)[C@@H](O)[C@@H](CO)O[C@H]1C(=O)N(c1cc(Cl)cc(Cl)c1)[C@H]1CCCC[C@@H]1O)N1CC(O)C1 [Example 128] | 7.89 | 6.75 |
| CO[C@@H]1[C@@H](n2cc(-c3ccc(Br)c(F)c3F)nn2)[C@@H](O)[C@@H](CO)O[C@H]1C(=O)N(c1cc(F)cc(C#N)c1)[C@H]1CCCC[C@@H]1O [Example 176, (2R,3R,4S,5R,6R)-4-(4-(4-bromo-2,3-difluorophenyl)-1H-1,2,3-triazol-1-yl)-N-(3-cyano-5-fluorophenyl)-5-hydroxy-N-((1S,2S)-2-hydroxycyclohexyl)-6-(hydroxymethyl)-3-methoxytetrahydro-2H-pyran-2-carboxamide] | 7.82 | 6.17 |
| CO[C@@H]1[C@@H](n2cc(-c3cc(F)c(F)c(F)c3)nn2)[C@@H](O)[C@@H](CO)O[C@H]1C(=O)N(c1cc(Cl)cc(Cl)c1)[C@H]1CCCCC[C@@H]1O [Example 208, (2R,3R,4S,5R,6R)-N-(3,5-dichlorophenyl)-5-hydroxy-N-((1S,2S)-2-hydroxycycloheptyl)-6-(hydroxymethyl)-3-methoxy-4-(4-(3,4,5-trifluorophenyl)-1H-1,2,3-triazol-1-yl)tetrahydro-2H-pyran-2-carboxamide] | 7.21 | 6.23 |
| O=C(CO[C@@H]1[C@@H](n2cc(-c3cc(F)c(F)c(F)c3)nn2)[C@@H](O)[C@@H](CO)O[C@H]1C(=O)N(c1cc(Cl)cc(Cl)c1)[C@H]1CCCC[C@@H]1O)N1CC[C@H](O)C1 [Example 125, (2R,3R,4S,5R,6R)—N-(3,5-dichlorophenyl)-5-hydroxy-N-((1S,2S)-2-hydroxycyclohexyl)-6-(hydroxymethyl)-3-(2-((S)-3-hydroxypyrrolidin-1-yl)-2-oxoethoxy)-4-(4-(3,4,5-trifluorophenyl)-1H-1,2,3-triazol-1-yl)tetrahydro-2H-pyran-2-carboxamide] | 8.05 | 6.87 |
| CO[C@@H]1[C@@H](n2cc(-c3cc(F)cc(Cl)c3)nn2)[C@@H](O)[C@@H](CO)O[C@H]1C(=O)N(c1cccc(C#N)c1)[C@H]1CCCC[C@@H]1O [Example 142, (2R,3R,4S,5R,6R)-4-(4-(3-chloro-5-fluorophenyl)-1H-1,2,3-triazol-1-yl)-N-(3-cyanophenyl)-5-hydroxy-N-((1S,2S)-2-hydroxycyclohexyl)-6-(hydroxymethyl)-3-methoxytetrahydro-2H-pyran-2-carboxamide] | 7.11 | 5.78 |
| CO[C@@H]1[C@@H](n2cc(-c3cc(F)c(Br)c(F)c3)nn2)[C@@H](O)[C@@H](CO)O[C@H]1C(=O)N(c1cc(F)cc(C#N)c1)[C@H]1CCCC[C@@H]1O [Example 155, (2R,3R,4S,5R,6R)-4-(4-(4-bromo-3,5-difluorophenyl)-1H-1,2,3-triazol-1-yl)-N-(3-cyano-5-fluorophenyl)-5-hydroxy-N-((1S,2S)-2-hydroxycyclohexyl)-6-(hydroxymethyl)-3-methoxytetrahydro-2H-pyran-2-carboxamide] | 7.62 | 5.82 |

More lines, in order of rising pIC50 (human Gal-3 (hGal-3)), values ahead:

| pIC50 (human Gal-3 (hGal-3)) | pIC50 (human Gal-1 (hGal-1)) | SMILES |
| --- | --- | --- |
| 6.75 | 4.94 | O=C([C@@H]1O[C@H](CO)[C@H](O)[C@H](n2cc(-c3cc(F)c(F)c(F)c3)nn2)[C@H]1O)N(Cc1cnsc1)[C@H]1CCCC[C@@H]1O [Example 18, (2R,3R,4S,5R,6R)-3,5-dihydroxy-N-((1S,2S)-2-hydroxycyclohexyl)-6-(hydroxymethyl)-N-(isothiazol-4-ylmethyl)-4-(4-(3,4,5-trifluorophenyl)-1H-1,2,3-triazol-1-yl)tetrahydro-2H-pyran-2-carboxamide] |
| 6.78 | 5.40 | COc1ncnc(OC)c1CN(C(=O)[C@@H]1O[C@H](CO)[C@H](O)[C@H](n2cc(-c3cc(F)c(F)c(F)c3)nn2)[C@H]1O)[C@H]1CCCC[C@@H]1O [Example 28, (2R,3R,4S,5R,6R)-N-((4,6-dimethoxypyrimidin-5-yl)methyl)-3,5-dihydroxy-N-((1S,2S)-2-hydroxycyclohexyl)-6-(hydroxymethyl)-4-(4-(3,4,5-trifluorophenyl)-1H-1,2,3-triazol-1-yl)tetrahydro-2H-pyran-2-carboxamide] |
| 6.90 | 5.87 | CO[C@@H]1[C@@H](n2cc(-c3ccc(C#N)c(F)c3)nn2)[C@@H](O)[C@@H](CO)O[C@H]1C(=O)N(c1cc(C)cc(C#N)c1)[C@H]1CCCC[C@@H]1O [Example 206, (2R,3R,4S,5R,6R)-4-(4-(4-cyano-3-fluorophenyl)-1H-1,2,3-triazol-1-yl)-N-(3-cyano-5-methylphenyl)-5-hydroxy-N-((1S,2S)-2-hydroxycyclohexyl)-6-(hydroxymethyl)-3-methoxytetrahydro-2H-pyran-2-carboxamide] |
| 7.28 | 6.30 | CO[C@@H]1[C@@H](n2cc(-c3cc(F)c(F)c(F)c3)nn2)[C@@H](O)[C@@H](CO)O[C@H]1C(=O)N(Cc1ccccc1Cl)[C@H]1CCCC[C@@H]1O [Example 12, (2R,3R,4S,5R,6R)-N-(2-chlorobenzyl)-5-hydroxy-N-((1S,2S)-2-hydroxycyclohexyl)-6-(hydroxymethyl)-3-methoxy-4-(4-(3,4,5-trifluorophenyl)-1H-1,2,3-triazol-1-yl)tetrahydro-2H-pyran-2-carboxamide] |
| 7.42 | 6.01 | CO[C@@H]1[C@@H](n2cc(-c3cc(F)c(F)c(F)c3)nn2)[C@@H](O)[C@@H](CO)O[C@H]1C(=O)N(c1cc(F)cc(F)c1)[C@H]1CCCC[C@@H]1O [Example 117, (2R,3R,4S,5R,6R)-N-(3,5-difluorophenyl)-5-hydroxy-N-((1S,2S)-2-hydroxycyclohexyl)-6-(hydroxymethyl)-3-methoxy-4-(4-(3,4,5-trifluorophenyl)-1H-1,2,3-triazol-1-yl)tetrahydro-2H-pyran-2-carboxamide] |
| 7.46 | 5.77 | CO[C@@H]1[C@@H](n2cc(-c3cc(F)cc(F)c3)nn2)[C@@H](O)[C@@H](CO)O[C@H]1C(=O)N(c1cccc(Cl)c1)[C@H]1CCCC[C@@H]1O [Example 85, (2R,3R,4S,5R,6R)-N-(3-chlorophenyl)-4-(4-(3,5-difluorophenyl)-1H-1,2,3-triazol-1-yl)-5-hydroxy-N-((1S,2S)-2-hydroxycyclohexyl)-6-(hydroxymethyl)-3-methoxytetrahydro-2H-pyran-2-carboxamide] |
| 7.77 | 5.94 | COc1cc(C#N)cc(N(C(=O)[C@@H]2O[C@H](CO)[C@H](O)[C@H](n3cc(-c4cc(F)cc(F)c4)nn3)[C@H]2OC)[C@H]2CCCC[C@@H]2O)c1 [Example 82, (2R,3R,4S,5R,6R)-N-(3-cyano-5-methoxyphenyl)-4-(4-(3,5-difluorophenyl)-1H-1,2,3-triazol-1-yl)-5-hydroxy-N-((1S,2S)-2-hydroxycyclohexyl)-6-(hydroxymethyl)-3-methoxytetrahydro-2H-pyran-2-carboxamide] |
| 7.92 | 6.65 | O=C(CO[C@@H]1[C@@H](n2cc(-c3cc(F)c(F)c(F)c3)nn2)[C@@H](O)[C@@H](CO)O[C@H]1C(=O)N(c1cc(Cl)cc(Cl)c1)[C@H]1CCCC[C@@H]1O)N1CCOCC1 [Example 124, (2R,3R,4S,5R,6R)—N-(3,5-dichlorophenyl)-5-hydroxy-N-((1S,2S)-2-hydroxycyclohexyl)-6-(hydroxymethyl)-3-(2-morpholino-2-oxoethoxy)-4-(4-(3,4,5-trifluorophenyl)-1H-1,2,3-triazol-1-yl)tetrahydro-2H-pyran-2-carboxamide] |
